From publication PMC8643917, “982. Effect of Hepatic Impairment on the Safety and Pharmacokinetics of Rezafungin” (Open Forum Infectious Diseases, 2021)
Where two headings read alike, the source gives them in different places. *1 amine or outer side, *2 acyl side, *3 side chain or, on linkers, in order; H or OH if unused. Where a SMILES comes first, the peptide text is derived from it. Bridges are numbered along the chain shown (N, C = ends). [ ]: non-standard residue; d: D form. The star is where a group is joined. Orn(4R-OH,5R-OCH2CH2NMe3+) = C[N+](C)(C)CCO[C@@H](N[*:3])[C@H](O)C[C@H](N[*:1])C(=O)[*:2]; pTerphenylCO(4''-OnC5H11) = CCCCCOc1ccc(-c2ccc(-c3ccc(C(=O)*)cc3)cc2)cc1; hTyr(3S-OH,4S-OH) = N[C@H](C(=O)O)[C@H](O)[C@@H](O)c1ccc(O)cc1; Pro(3S-OH,4S-Me) = C[C@H]1CN[C@H](C(=O)O)[C@H]1O; Hyp = O=C(O)[C@@H]1C[C@@H](O)CN1

Columns and labels:
[1] = Plasma pharmacokinetics of rezafungin after a single 400-mg IV 1-hour infusion, open-label single-dose study, non-compartmental analysis; assay type: in vivo, human; details: for half-life: n = 8, plasma sampling through 336 hours postdose, non-compartmental analysis
From the text: (§1) Abstract Background Rezafungin (RZF) is a novel echinocandin antifungal being developed for treatment of candidemia and invasive candidiasis, and for prevention of invasive fungal diseases among immunosuppressed patients. In the Phase 2 and Phase 3 treatment trials of rezafungin compared with caspofungin (STRIVE [NCT02734862] and ReSTORE [NCT03667690], respectively), patients with severe hepatic impairment (HI) were not included due to lack of caspofungin data in this population. Rezafungin was previously evaluated in patients with moderate hepatic impairment. Here we report an open-label, single-dose study on rezafungin in patients with HI (Child-Pugh class C). Methods To investigate the safety, tolerability, and pharmacokinetics (PK) of RZF in subjects with HI and healthy subjects (HS), 8 subjects with HI and 8 HS matched for age, sex, and body mass index (BMI) were enrolled and received a single 400-mg intravenous 1-hour infusion of RZF. Plasma PK sampling was performed at various time points through 336 hours postdose. RZF PK parameters were derived using non-compartmental analysis. Safety was assessed throughout the study. Results The majority of the HI subjects were White (87.5%) and male (75%) while equal distribution between White and Black or African American was observed among HS (50%) and 75% were male. The mean age of HI subjects was 58 years (range, 41–68 years) and 56.6 years (range, 50–61 years) for the HS. Mean BMI was 29.7 kg/m^2 (range, 24.5–34.3 kg/m^2) for HI subjects and 29.7 kg/m^2 (range, 25.4–34.2 kg/m^2) for the HS. […] Three HI subjects had one adverse event (AE) each (bronchitis, worsening hepatic encephalopathy, hyponatremia), all moderate in severity; one HS had 1 AE of infusion site infiltration mild in severity. […] Table 1. Plasma Rezafungin PK Parameter Estimates in Subjects with Severe Hepatic Impairment or Normal Hepatic Function After a Single 400 mg IV Infusion of Rezafungin Figure 1. […] These findings support no RZF dose adjustment in subjects with severe hepatic impairment. Disclosures Voon Ong, PhD, Cidara Therapeutics (Employee, Shareholder) Taylor Sandison, MD, MPH, Cidara Therapeutics (Employee, Shareholder) Rebeca M. Melara, M.S., Altasciences (contract research organization) (Employee) Thomas C. Marbury, MD, Orlando Clinical Research Center (Employee, Other Financial or Material Support, Equity owner of Orlando Clinical Research Center) Alena Jandourek, MD, Cidara therapeutics (Consultant) Shawn Flanagan, PhD, Cidara Therapeutics (Employee, Shareholder)

[2] = Safety and tolerability of a single 400-mg IV infusion of rezafungin in subjects with severe hepatic impairment and matched healthy subjects; assay type: in vivo, human
From the text: as §1

[3] = HI (Child-Pugh class C, n = 8) versus matched HS (n = 8), plasma, reduction

## CCCCCOc1ccc(-c2ccc(-c3ccc(C(=O)N[C@H]4C[C@@H](O)[C@@H](OCC[N+](C)(C)C)NC(=O)[C@@H]5[C@@H](O)[C@@H](C)CN5C(=O)[C@H]([C@@H](C)O)NC(=O)[C@H]([C@H](O)[C@@H](O)c5ccc(O)cc5)NC(=O)[C@@H]5C[C@@H](O)CN5C(=O)[C@H]([C@@H](C)O)NC4=O)cc3)cc2)cc1 [RZF, Rezafungin] ({pTerphenylCO(4''-OnC5H11)}-[Orn(4R-OH,5R-OCH2CH2NMe3+)]T[Hyp][hTyr(3S-OH,4S-OH)]T[Pro(3S-OH,4S-Me)]; lactam 1-C)
[1]; [3]
  RZF exposure (AUC) in subjects with HI, lower than that in HS: ~ 30%
  RZF exposure (Cmax) in subjects with HI, lower than that in HS: ~ 30%
[1]; both sexes, human, subjects with severe hepatic impairment (HI, Child-Pugh class C), read-out: half-life (converted)
  half-life: 121 h
[1]; healthy subjects (HS) matched for age, sex and BMI
  half-life: 124 h
[2]; HI and HS subjects, all AEs resolved or resolving by the end of the study
  adverse events considered related to RZF: No AEs were considered related to RZF
[2]; HI subjects (Child-Pugh class C)
  tolerability: well tolerated
[2]; HI subjects (n = 8), one AE each (bronchitis, worsening hepatic encephalopathy, hyponatremia), all moderate in severity
  number of subjects with an adverse event (AE): Three
[2]; healthy subjects (n = 8), 1 AE of infusion site infiltration, mild in severity
  number of subjects with an adverse event (AE): one
